# Assay results: patent publication US9181218B2, “Compounds for improved stem cell differentiation into hepatocytes” (Hoffmann-La Roche Inc., priority 2013, dated 2015)
# Test system: interferon-stimulated genes (ISGs)
# Test: Microarray analysis of iCell Hepatocytes treated with the compound of example 1
# Format: cell-based, Human
# Excerpt: iCell Hepatocytes treated with the compound of example 1 results in the up and down-regulation of a host of genes; including a kinetic effect on interferon-stimulated gene (ISGs) expression. See FIGS. 15-I and 15-II, 16-I and 16-II and 18 and Table 1.
smiles,measurement,setting,value
"O=C(NCc1cccc(F)c1)c1cccc2nc(-c3c(NC[C@@H](O)c4ccccc4)cc[nH]c3=O)[nH]c12 [Example 1, 2-[4-((S)-2-hydroxy-2-phenyl-ethylamino)-2-oxo-1,2-dihydro-pyridin-3-yl]-3H-benzoimidazole-4-carboxylic acid 3-fluoro-benzylamide]",IFITM2 Raw Est Fold Change,24 HOUR,−1.90
same,IFITM3 Raw Est Fold Change,24 HOUR,−1.36
same,IFNGR1 Raw Est Fold Change,24 HOUR,−2.46
same,IGHM Raw Est Fold Change,24 HOUR,−2.00
same,IL6 Raw Est Fold Change,24 HOUR,−4.57
same,IL6ST Raw Est Fold Change,24 HOUR,−1.25
same,IL8 Raw Est Fold Change,24 HOUR,−4.32
same,IL28RA Raw Est Fold Change,24 HOUR,1.28
same,IMPA2 Raw Est Fold Change,24 HOUR,−1.80
same,IQGAP1 Raw Est Fold Change,24 HOUR,−1.70
same,IRF3 Raw Est Fold Change,24 HOUR,1.26
same,IRF7 Raw Est Fold Change,24 HOUR,−3.86
same,ISG20 Raw Est Fold Change,24 HOUR,−1.70
same,ISGF3G Raw Est Fold Change,24 HOUR,−1.37
same,ITGA2 Raw Est Fold Change,24 HOUR,−1.94
same,JAK1 Raw Est Fold Change,24 HOUR,−1.17
same,JAK2 Raw Est Fold Change,24 HOUR,−1.29
same,JUNB Raw Est Fold Change,24 HOUR,−4.94
same,KDELR2 Raw Est Fold Change,24 HOUR,−1.19
same,KIAA0040 Raw Est Fold Change,24 HOUR,−5.04
same,KPNB1 Raw Est Fold Change,24 HOUR,−1.12
same,LEPR Raw Est Fold Change,24 HOUR,2.89
same,LIFR Raw Est Fold Change,24 HOUR,1.33
same,LRG1 Raw Est Fold Change,24 HOUR,−2.10
same,LRP4 Raw Est Fold Change,24 HOUR,−2.17
same,MAFB Raw Est Fold Change,24 HOUR,2.60
same,MAFF Raw Est Fold Change,24 HOUR,−2.09
same,MAP3K8 Raw Est Fold Change,24 HOUR,−3.81
same,MCL1 Raw Est Fold Change,24 HOUR,−1.16
same,MLKL Raw Est Fold Change,24 HOUR,−1.78
same,MSR1 Raw Est Fold Change,24 HOUR,−2.06
same,MT1M Raw Est Fold Change,24 HOUR,−3.35
same,MT1X Raw Est Fold Change,24 HOUR,−6.73
same,MTHFD2L Raw Est Fold Change,24 HOUR,−2.20
same,MTMR1 Raw Est Fold Change,24 HOUR,−1.14
same,MYD88 Raw Est Fold Change,24 HOUR,1.15
same,MYT1 Raw Est Fold Change,24 HOUR,−3.59
same,N4BP1 Raw Est Fold Change,24 HOUR,−1.40
same,NFE2 Raw Est Fold Change,24 HOUR,−8.28
same,NFKBIA Raw Est Fold Change,24 HOUR,−1.38
same,NPAS2 Raw Est Fold Change,24 HOUR,−2.77
same,NUB1 Raw Est Fold Change,24 HOUR,−1.47
same,PADI2 Raw Est Fold Change,24 HOUR,2.66
same,PCGF2 Raw Est Fold Change,24 HOUR,1.44
same,PCMT1 Raw Est Fold Change,24 HOUR,−1.10
same,PCTK2 Raw Est Fold Change,24 HOUR,−1.85
same,PCTK3 Raw Est Fold Change,24 HOUR,1.59
same,PDGFA Raw Est Fold Change,24 HOUR,1.23
same,PDGFRL Raw Est Fold Change,24 HOUR,−1.86
same,PDK1 Raw Est Fold Change,24 HOUR,−1.48
same,PEX26 Raw Est Fold Change,24 HOUR,1.29
same,PIM3 Raw Est Fold Change,24 HOUR,−2.56
same,PLOD2 Raw Est Fold Change,24 HOUR,−1.22
same,PLSCR1 Raw Est Fold Change,24 HOUR,−3.34
same,PNRC1 Raw Est Fold Change,24 HOUR,−2.42
same,PPIC Raw Est Fold Change,24 HOUR,−1.23
same,PPP1R3D Raw Est Fold Change,24 HOUR,−1.49
same,PSCD1 Raw Est Fold Change,24 HOUR,−1.21
same,PSMA2 Raw Est Fold Change,24 HOUR,1.27
same,PSMB9 Raw Est Fold Change,24 HOUR,−1.86
same,PTEN Raw Est Fold Change,24 HOUR,1.23
same,RAB27A Raw Est Fold Change,24 HOUR,−2.33
same,RANBP1 Raw Est Fold Change,24 HOUR,1.13
same,RBCK1 Raw Est Fold Change,24 HOUR,1.34
same,RBL1 Raw Est Fold Change,24 HOUR,−4.92
same,RBMS1 Raw Est Fold Change,24 HOUR,−1.38
same,RHOH Raw Est Fold Change,24 HOUR,5.26
same,RXRA Raw Est Fold Change,24 HOUR,1.46
same,SAT Raw Est Fold Change,24 HOUR,−1.57
same,SDC2 Raw Est Fold Change,24 HOUR,1.96
same,SERPINB9 Raw Est Fold Change,24 HOUR,−1.86
same,SFPQ Raw Est Fold Change,24 HOUR,−1.39
same,SFTPC Raw Est Fold Change,24 HOUR,−1.66
same,SLC15A2 Raw Est Fold Change,24 HOUR,−1.58
same,SLC25A28 Raw Est Fold Change,24 HOUR,−1.54
same,SLC25A30 Raw Est Fold Change,24 HOUR,1.53
same,SMAD3 Raw Est Fold Change,24 HOUR,−1.19
same,SOAT2 Raw Est Fold Change,24 HOUR,4.03
same,SOCS1 Raw Est Fold Change,24 HOUR,−9.88
same,SOCS3 Raw Est Fold Change,24 HOUR,−3.51
same,SPTLC2 Raw Est Fold Change,24 HOUR,−10.08
same,SQLE Raw Est Fold Change,24 HOUR,−1.98
same,SQRDL Raw Est Fold Change,24 HOUR,−1.45
same,SSBP3 Raw Est Fold Change,24 HOUR,1.35
same,STAT1 Raw Est Fold Change,24 HOUR,−2.14
same,STEAP4 Raw Est Fold Change,24 HOUR,−65.16
same,TAP1 Raw Est Fold Change,24 HOUR,−1.60
same,TAP2 Raw Est Fold Change,24 HOUR,−1.54
same,TBX3 Raw Est Fold Change,24 HOUR,1.42
same,TCF7L2 Raw Est Fold Change,24 HOUR,−1.29
same,TEAD4 Raw Est Fold Change,24 HOUR,−2.33
same,TFPI Raw Est Fold Change,24 HOUR,−1.38
same,THBD Raw Est Fold Change,24 HOUR,−9.02
same,THBS1 Raw Est Fold Change,24 HOUR,−1.44
same,TMEM2 Raw Est Fold Change,24 HOUR,−1.35
same,TMEM49 Raw Est Fold Change,24 HOUR,−2.07
same,TMEM67 Raw Est Fold Change,24 HOUR,−4.34
same,TNFSF13B Raw Est Fold Change,24 HOUR,1.36
same,TRIM14 Raw Est Fold Change,24 HOUR,1.36
same,TRIM26 Raw Est Fold Change,24 HOUR,1.56
same,TXNIP Raw Est Fold Change,24 HOUR,−1.37
same,UBE2S Raw Est Fold Change,24 HOUR,−1.40
same,USP12 Raw Est Fold Change,24 HOUR,−1.96
same,USP25 Raw Est Fold Change,24 HOUR,−1.22
same,VAT1 Raw Est Fold Change,24 HOUR,1.21
same,YWHAE Raw Est Fold Change,24 HOUR,−1.11
same,ZFYVE26 Raw Est Fold Change,24 HOUR,1.31
same,ZNF24 Raw Est Fold Change,24 HOUR,−1.16
same,ZNF295 Raw Est Fold Change,24 HOUR,−1.84
same,ABHD5 Raw Est Fold Change,DAY 7,−2.05
same,ACSL1 Raw Est Fold Change,DAY 7,1.78
same,ADM Raw Est Fold Change,DAY 7,−3.85
same,AGXT Raw Est Fold Change,DAY 7,2.54
same,AHR Raw Est Fold Change,DAY 7,−2.08
same,AKR1B1 Raw Est Fold Change,DAY 7,−3.52
same,AKT3 Raw Est Fold Change,DAY 7,−5.29
same,ALCAM Raw Est Fold Change,DAY 7,−1.46
same,ALDH1A1 Raw Est Fold Change,DAY 7,1.54
same,AMPH Raw Est Fold Change,DAY 7,−21.01
same,APOL6 Raw Est Fold Change,DAY 7,1.36
same,ARHGDIB Raw Est Fold Change,DAY 7,−3.40
